These are literature values, as cited in paper PMC5974752, “Bax/Tubulin/Epithelial-Mesenchymal Pathways Determine the Efficacy of Silybin Analog HM015k in Colorectal Cancer Cell Growth and Metastasis” (Frontiers in Pharmacology, 2018).

The subject of one data set is EMT—driven resistance. More on the design: method as in Cufí et al., 2013. The following applies: 100 mg/kg; ref Cufí et al., 2013; cited from earlier work.
Details of data set [1]: method as in Dixit et al., 2007; Zhu et al., 2013; Amawi et al., 2017b. The following applies: ref Dixit et al., 2007; Zhu et al., 2013; Amawi et al., 2017b; cited from earlier work.
In the next data set the test system is ARCaP(M) cells. On the set-up: method as in Wu et al., 2009. The following applies: 100 and 200 μM; ref Wu et al., 2009; cited from earlier work.
For data set [2], the system named is transgenic mice with prostate adenocarcinomas. More on the design: method as in Singh et al., 2008. The following applies: 0.5 and 1% (w/w); ref Singh et al., 2008; cited from earlier work.
Data set [3] deals with SW480 cells with a mutant APC gene. On the set-up: method as in Kaur et al., 2010. The following applies: 50–200 μM; ref Kaur et al., 2010; cited from earlier work.
The subject of data set [4] is xenograft model in mice using SW480 cells. On the set-up: method as in Kaur et al., 2010. The following applies: i.p. 100 or 200 mg/kg; ref Kaur et al., 2010; cited from earlier work.
Data set [5] concerns PC3 and PC3MM2 cells. On the set-up: method as in Deep et al., 2011. The following applies: 30 and 90 μM; ref Deep et al., 2011; cited from earlier work.
Data set [6] has as its system Wnt/β-catenin signaling in PC-3, DU-145, MDAMB-231 and T-47D cells. On the set-up: method as in Lu W. et al., 2012. The following applies: 100–200 μM; ref Lu W. et al., 2012; cited from earlier work.
In data set [7] the test system is PC3 and PC3MM2 cells. More on the design: method as in Deep et al., 2011. The following applies: 90 μM; ref Deep et al., 2011; cited from earlier work.
Data set [8] relates to CRC lines HCT116 and HT29. More on the design: method as in Agarwal et al., 2003. The following applies: ref Agarwal et al., 2003, cited from earlier work.

Turning to `COc1cc(C2Oc3cc([C@H]4Oc5cc(O)cc(O)c5C(=O)[C@@H]4O)ccc3OC2CO)ccc1O` (some centres unmarked) [silybin], the EMT-driven resistance result in the data set on EMT—driven resistance is “significantly decreased”. The bioavailability result in [1] is “poor bioavailability”. For the same compound, the invasiveness result in the data set on ARCaP(M) cells is on record as “inhibits the invasiveness”. Besides, the “E-cadherin, vimentin and MMP-2 expression” value in data set [2] was “significantly upregulate E-cadherin and decrease the expression of the EMT markers, vimentin and MMP-2”. Further, in [3], the “nuclear β-catenin, c-Myc expression and apoptosis” value was “significantly inhibited the expression of nuclear β-catenin, c-Myc and induced apoptosis”. Moreover, the “effects in SW480 xenograft” value in data set [4] was “produced similar effects”. The “migratory and invasive capacities” value with PC3 and PC3MM2 cells [5] is “inhibits the migratory and invasive capacities”. In addition, in [6], the Wnt/β-catenin signaling result is reported as “significantly decreased”. Moreover, the “E-cadherin and nuclear β-catenin levels” value in the data set on PC3 and PC3MM2 cells [7] was “significant upregulation in E-cadherin and downregulation in nuclear β-catenin levels”. Also, in data set [8] (HCT116 and HT29), the “concentration that inhibits proliferation” value was 50 to 200 µM. Also, the “cell cycle arrest and apoptosis” value in [8] is “induces both G1 and G2 cell cycle arrest and induces apoptosis”.
